Tested on: CHO DG44 cells
Assay: Combination with IDMTs, IgG batch yield by ELISA (Example 6)
Assay type: cell-based, Chinese Hamster
Conditions: VPA 0.5 mmol/l; no addition = 100%; day 5 after transfection
Procedure: 10 million suspension-adapted HEK293E cells were resuspended in 0.5 ml of Ex-Cell 293 HEK 293 serum-free medium with 4 mmol/l L-glutamine (Cat. No. 14571C-[…]; Lot No. 6A0093; SAFC Biosciences, Lenexa, Kans., USA, “Ex-Cell” medium; note: “Ex-Cell” medium-as used herein-refers to a medium comprising 4 mmol/l L-glutamine) in a 50-ml filter tube each (TPP AG, Trasadingen, Switzerland; Cat. No. 87050, Lot 20050174). In a separate set, 10 million suspension-adapted CHO DG44 cells were resuspended in 0.5 ml of ProCHO5 serum-free medium with 4 mmol/[…] hypoxanthine and 0.194 g/l thymidine (BioWhittaker (Lonza), Belgium; Cat. No. BE12-[…]; Lot No. 7MB0040; “ProCHO5” medium; note: “ProCHO5” medium-as used herein-refers to a medium comprising 4 mmol/[…] hypoxanthine and 0.194 g/l thymidine) in a 50-ml filter tube each (TPP AG, Trasadingen, Switzerland; Cat. No. 87050, Lot 20050174). Then 12.5 μg plasmid DNA at a concentration of 1 μg/μl was added in each tube with the following composition 50% (6.25 μg) p-LC (SEQ ID NO: 1) 50% (6.25 μg) p-HC (SEQ ID NO: 3). Plasmid p-LC comprises the genetic information for the production of the light chain of an IgG antibody, plasmid p-HC comprises the genetic information for the production of the heavy chain of an IgG antibody. The particular vector constructs used in the present invention can also be obtained from the inventors. The inventors can be contacted via e-mail at […]. Moreover, commercial services do exist that produce any desired nucleotide sequence even comprising several kilobase pairs including complete expression cassettes in plasmid backgrounds (e.g., Invitrogen, Carlsbad, USA; Geneart, Germany.) Thus, providing the genetic sequence information of the plasmids should enable one of ordinary skill in the art to order the plasmids of the present invention at one of the commercial services listed. After shortly mixing the DNA with the cells by gentle shaking, 25 μg of 25-kd linear polyethyleneimine (“PEI”; Polysciences, Eppelheim, Germany; [2]) were added at a concentration of 1 μg/μl to each of the tubes. After shortly mixing by gentle shaking, the filter tubes containing the cells together with the DNA and PEI were transferred into an orbital shaker (Kühner Shaker Cabinet ISF-4-W, “Kühner shaker”, Kühner AG, Birsfelden, Switzerland), and the cells were incubated for 4 hours at 37° C. in a 5% CO2 atmosphere under shaking at 180 rpm. After that time, 4.5 ml of Ex-Cell medium were added to each of the filter tubes containing HEK 293 cells and 4.5 ml of Pro-CHO5 were added to each of the filter tubes containing CHO DG44 cells. Then, valproic acid was added to each of the tubes at the corresponding final concentration. In addition, the following chemicals were added to the corresponding tubes at a final concentration of: […] Azacytidine was purchased from Sigma-Aldrich Chemie GmbH, Industriestrasse 25, CH-9471 Buchs SG, Catalog Number A1287-1 VL. RG108 was purchased from Sigma-Aldrich Chemie GmbH, Industriestrasse 25, CH-9471 Buchs SG, Catalog Number R8279-10MG. The cells then were returned into the Kuhner shaker and incubated at 37° C. in a 5% CO2 atmosphere under shaking at 180 rpm. […] In short, Goat anti-human kappa light chain IgG (Biosource) was used for coating the ELISA-plates, and with AP-conjugated goat anti-human gamma chain IgG (Biosource) the synthesized IgG1 was detected. […] Absorption was measured at 405 nm against 490 nm using a microplate reader (SPECTRAmaxTM340; Molecular Devices, Palo Alto, Calif., USA).

CCCC(CCC)C(=O)O [VPA, valproic acid]
Fold increase in batch yield over control: 170% ± 20%
